Calls of active or inactive are those of the source.
Tests used:
[1] = A High Throughput Confirmatory Assay used to Identify Novel Compounds that Inhibit Mycobacterium Tuberculosis in the absence of Glycerol.; assay type: functional
[2] = cells; assay type: functional
[3] = target: T1, Estrogen receptor (Homo sapiens, UniProt P03372);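 further: potency for inhibiting coactivator peptide recruitment to the receptor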
T1 sequence (P03372 whole entry): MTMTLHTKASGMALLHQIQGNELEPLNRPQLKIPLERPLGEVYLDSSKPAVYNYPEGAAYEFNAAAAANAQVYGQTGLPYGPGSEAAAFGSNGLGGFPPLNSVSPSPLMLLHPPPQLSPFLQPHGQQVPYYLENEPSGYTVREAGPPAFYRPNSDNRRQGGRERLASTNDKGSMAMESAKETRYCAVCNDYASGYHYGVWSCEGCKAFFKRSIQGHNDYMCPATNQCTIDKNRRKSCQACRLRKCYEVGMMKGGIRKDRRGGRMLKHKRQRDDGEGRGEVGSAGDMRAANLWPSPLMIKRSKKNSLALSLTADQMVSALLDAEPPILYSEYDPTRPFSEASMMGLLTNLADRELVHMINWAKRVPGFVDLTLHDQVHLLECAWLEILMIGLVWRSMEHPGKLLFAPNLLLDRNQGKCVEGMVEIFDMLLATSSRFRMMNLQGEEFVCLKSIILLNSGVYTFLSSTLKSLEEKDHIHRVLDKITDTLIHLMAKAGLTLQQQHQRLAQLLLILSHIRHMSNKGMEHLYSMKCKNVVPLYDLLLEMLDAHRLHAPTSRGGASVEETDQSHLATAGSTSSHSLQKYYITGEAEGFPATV

[4] = system: HEK293; test: cells; assay type: functional, cell-based; conditions: Homo sapiens
[5] = target: Nucleotide-binding oligomerization domain-containing protein 2 (Homo sapiens, UniProt Q9HC29); test: NOD2 signaling inhibitors, cell-based, luminescence, uHTS, HEK293 (AID 1566); assay type: functional
[6] = system: Streptococcus sp. 'group A'; test: growth inhibition of control SK(-) GAS strain, dose response, counter-screen for streptokinase expression inhibitor project, luminescence, kanamycin, BacTiterGlo, confirmation (AID 1900); assay type: functional, organism-based
[7] = system: HEK293; test: cells; assay type: functional, cell-based; conditions: Homo sapiens; remark: listed apart in the source
[8] = inhibitors of intracellular T. cruzi replication, confirmation, NIH3T3 host cells, beta-gal luminescence (AID 2044); assay type: functional, cell-based;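 further: intracellular parasites grown in NIH/3T3 mouse fibroblasts as host cells; luminescent beta-galactosidase reporter signal from transgenic T. cruzi replicating inside host cells; inhibitors lower the luminescence signal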
[9] = cytotoxicity toward NIH3T3 fibroblasts, dose response, counter-screen, cell-based, ATP luminescence, mouse fibroblasts (AID 2010); assay type: functional;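 further: cells exposed to compound for about 90 hours before reading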
[10] = inhibitors of SNCA 5'UTR-driven translation, confirmation, luminescence, H4 neuroglioblastoma cells, dose confirmation (AID 2454); assay type: functional, cell-based;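 further: H4 neuroglioblastoma cells carrying an alpha-synuclein 5'UTR luciferase reporter; potency for inhibition of the luciferase signal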
[11] = luciferase reporter signal reduction – luminescence, H4-C neuroglioblastoma cells, dose response (AID 2458); assay type: functional, cell-based;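 further: H4 neuroglioblastoma cells stably carrying a luciferase reporter gene fusion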
[12] = cells; assay type: functional, cell-based
[13] = system: HEK293; test: cells; assay type: functional, cell-based; conditions: Homo sapiens; remark: listed apart in the source
[14] = inhibitors of firefly luciferase expression or activity, dose response, H4 neuroglioma cells, luminescence (AID 1990); assay type: functional, cell-based
[15] = target: T2, Mannose-6-phosphate isomerase (Homo sapiens, UniProt P34949); test: human PMI inhibitors, high substrate, primary screen, biochemical, fluorescence intensity, high mannose 6-phosphate (AID 1220)
T2 sequence (P34949 whole entry): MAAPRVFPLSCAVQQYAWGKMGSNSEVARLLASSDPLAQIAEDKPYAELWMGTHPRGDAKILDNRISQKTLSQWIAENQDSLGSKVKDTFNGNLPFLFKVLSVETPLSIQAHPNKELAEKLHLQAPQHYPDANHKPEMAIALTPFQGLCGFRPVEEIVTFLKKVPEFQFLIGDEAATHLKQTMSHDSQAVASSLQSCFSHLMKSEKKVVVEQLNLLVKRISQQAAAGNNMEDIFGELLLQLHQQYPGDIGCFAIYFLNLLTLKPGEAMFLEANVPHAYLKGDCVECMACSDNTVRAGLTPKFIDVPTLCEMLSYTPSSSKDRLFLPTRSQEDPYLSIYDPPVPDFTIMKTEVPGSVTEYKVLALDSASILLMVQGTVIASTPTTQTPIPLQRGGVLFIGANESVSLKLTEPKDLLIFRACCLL

[16] = system: INS1; test: beta cell apoptosis inhibitors, cytokine rescue, dose response, luminescence, retest (AID 449756); assay type: functional, cell-based; conditions: Rattus norvegicus;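 further: cell death triggered by IL-1 beta plus TNF-alpha plus IFN-gamma mixture; protective hits raise ATP signal compared with cytokine alone wells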
[17] = target: T2, Mannose-6-phosphate isomerase; test: inhibitors of human PMI, primary screen, biochemical, fluorescence intensity, coupled assay (AID 1209)
[18] = system: HEK293; test: NOD2 signaling inhibitors in MDP-stimulated cells, cell-based, uHTS, luminescence (AID 2001); assay type: functional; conditions: Homo sapiens
[19] = system: Streptococcus; test: Group A Streptococcus viability loss, dose response, counter-screen for streptokinase expression inhibitor project, luminescence, BacTiterGlo (AID 1915); assay type: functional, organism-based;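 further: potency for reduction of bacterial viability or growth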
[20] = system: HEK293; test: NOD1 signaling inhibitors, primary screen, cell-based, luminescence, uHTS (AID 1578); assay type: functional; conditions: Homo sapiens
[21] = inhibitors of SNCA 5'UTR-driven reporter translation, confirmation, H4 neuroglioma cells, luminescence (AID 1988); assay type: functional, cell-based
[22] = target: Wee1-like protein kinase (Homo sapiens, UniProt P30291); test: Dose Response Cell-based Assay for Inhibitors of Wee1 Degradation. [Related pubchem assays: 1410, 1321 ]; assay type: functional
[23] = target: G2/mitotic-specific cyclin-B1 (Homo sapiens, UniProt P14635); test: Counterscreen assay for inhibitors of Wee1 degradation: dose response cell-based assay to identify inhibitors of cyclin B degradation. [Related pubchem assays: 1410, 1321 ]; assay type: functional
[24] = target: NADPH oxidase 1 (Homo sapiens, UniProt Q9Y5S8); assay type: functional, cell-based;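 further: Cell-based assay with luminescence read-out, IC50 derived from inhibitor dose-response curves; intracellular ROS from endogenous NOX1 in intact HT29 colon cancer cells; potency of inhibitors that lower the ROS luminescence signal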
[25] = target: Cytochrome P450 2D6 (Homo sapiens, UniProt P10635);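 further: CYP2D6 member of a cytochrome P450 panel assay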
[26] = target: T3, Cytochrome P450 2C19 (Homo sapiens, UniProt P33261); test: Cytochrome panel assay with activity outcomes. Panel member name: p450-cyp2c19 Compounds with AC50 equal or less than 10 uM are considered active; assay type: functional; conditions: read-out: AC50
[27] = target: T3, Cytochrome P450 2C19; test: qHTS Assay for Inhibitors and Substrates of Cytochrome P450 2C19. [Related pubchem assays: 410 ]; assay type: ADME; conditions: read-out: Potency

T3 sequence (P33261 whole entry): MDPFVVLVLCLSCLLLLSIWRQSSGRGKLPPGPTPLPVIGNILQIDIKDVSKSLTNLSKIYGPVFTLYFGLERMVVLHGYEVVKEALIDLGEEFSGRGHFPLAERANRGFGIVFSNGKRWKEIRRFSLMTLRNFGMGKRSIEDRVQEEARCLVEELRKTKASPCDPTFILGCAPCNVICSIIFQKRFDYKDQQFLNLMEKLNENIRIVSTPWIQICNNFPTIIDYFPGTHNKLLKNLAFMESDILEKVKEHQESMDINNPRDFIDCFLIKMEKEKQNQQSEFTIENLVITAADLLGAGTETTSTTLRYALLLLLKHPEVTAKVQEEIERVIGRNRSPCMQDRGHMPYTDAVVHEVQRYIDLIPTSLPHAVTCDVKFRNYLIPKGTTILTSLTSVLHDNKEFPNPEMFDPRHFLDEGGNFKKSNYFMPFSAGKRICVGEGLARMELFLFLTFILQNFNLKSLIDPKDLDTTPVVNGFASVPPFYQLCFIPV
Chain of G2/mitotic-specific cyclin-B1 (P14635 whole entry): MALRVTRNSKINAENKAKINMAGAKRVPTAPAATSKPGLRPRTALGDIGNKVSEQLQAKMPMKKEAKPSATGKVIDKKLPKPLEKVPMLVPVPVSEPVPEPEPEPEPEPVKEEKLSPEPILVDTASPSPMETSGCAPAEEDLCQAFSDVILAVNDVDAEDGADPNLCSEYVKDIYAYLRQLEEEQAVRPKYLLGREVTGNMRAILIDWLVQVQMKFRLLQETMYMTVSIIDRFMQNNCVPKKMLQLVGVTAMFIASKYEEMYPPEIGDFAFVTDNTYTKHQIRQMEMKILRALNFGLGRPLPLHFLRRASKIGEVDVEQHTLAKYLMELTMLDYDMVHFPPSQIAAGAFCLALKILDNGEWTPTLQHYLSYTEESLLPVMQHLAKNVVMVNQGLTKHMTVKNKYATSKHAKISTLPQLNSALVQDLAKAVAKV
Chain of Wee1-like protein kinase (P30291 whole entry): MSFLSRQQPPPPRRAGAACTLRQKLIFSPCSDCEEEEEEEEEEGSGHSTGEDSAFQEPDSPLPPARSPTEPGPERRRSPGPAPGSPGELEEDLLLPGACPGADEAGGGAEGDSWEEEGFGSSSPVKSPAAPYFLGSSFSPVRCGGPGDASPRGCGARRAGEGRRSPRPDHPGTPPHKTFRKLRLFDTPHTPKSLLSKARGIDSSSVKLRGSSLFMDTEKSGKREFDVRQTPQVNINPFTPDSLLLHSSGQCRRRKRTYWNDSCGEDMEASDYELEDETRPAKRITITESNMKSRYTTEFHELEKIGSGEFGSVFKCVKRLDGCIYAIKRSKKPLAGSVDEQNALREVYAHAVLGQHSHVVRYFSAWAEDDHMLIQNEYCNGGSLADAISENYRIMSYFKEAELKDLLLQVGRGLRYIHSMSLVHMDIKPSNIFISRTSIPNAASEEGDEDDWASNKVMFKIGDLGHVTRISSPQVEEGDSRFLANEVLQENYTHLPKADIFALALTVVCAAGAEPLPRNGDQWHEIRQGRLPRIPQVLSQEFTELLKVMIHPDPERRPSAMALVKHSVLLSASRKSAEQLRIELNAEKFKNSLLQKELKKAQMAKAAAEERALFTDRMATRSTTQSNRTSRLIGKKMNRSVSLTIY
Chain of Cytochrome P450 2D6 (P10635 whole entry): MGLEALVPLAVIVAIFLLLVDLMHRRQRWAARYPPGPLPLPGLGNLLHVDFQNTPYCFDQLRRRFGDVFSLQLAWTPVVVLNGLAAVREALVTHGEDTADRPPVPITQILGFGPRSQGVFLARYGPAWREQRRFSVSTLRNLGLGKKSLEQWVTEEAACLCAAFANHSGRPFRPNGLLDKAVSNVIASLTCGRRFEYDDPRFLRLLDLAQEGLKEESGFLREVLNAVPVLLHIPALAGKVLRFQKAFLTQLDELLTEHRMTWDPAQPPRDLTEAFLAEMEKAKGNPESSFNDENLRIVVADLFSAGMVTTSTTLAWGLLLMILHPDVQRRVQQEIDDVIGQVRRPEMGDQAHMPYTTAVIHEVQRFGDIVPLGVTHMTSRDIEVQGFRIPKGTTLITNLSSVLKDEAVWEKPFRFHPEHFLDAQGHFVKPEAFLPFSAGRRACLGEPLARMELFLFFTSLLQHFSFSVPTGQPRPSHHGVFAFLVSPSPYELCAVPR
Chain of Nucleotide-binding oligomerization domain-containing protein 2 (Q9HC29 whole entry, the tested form may be a part): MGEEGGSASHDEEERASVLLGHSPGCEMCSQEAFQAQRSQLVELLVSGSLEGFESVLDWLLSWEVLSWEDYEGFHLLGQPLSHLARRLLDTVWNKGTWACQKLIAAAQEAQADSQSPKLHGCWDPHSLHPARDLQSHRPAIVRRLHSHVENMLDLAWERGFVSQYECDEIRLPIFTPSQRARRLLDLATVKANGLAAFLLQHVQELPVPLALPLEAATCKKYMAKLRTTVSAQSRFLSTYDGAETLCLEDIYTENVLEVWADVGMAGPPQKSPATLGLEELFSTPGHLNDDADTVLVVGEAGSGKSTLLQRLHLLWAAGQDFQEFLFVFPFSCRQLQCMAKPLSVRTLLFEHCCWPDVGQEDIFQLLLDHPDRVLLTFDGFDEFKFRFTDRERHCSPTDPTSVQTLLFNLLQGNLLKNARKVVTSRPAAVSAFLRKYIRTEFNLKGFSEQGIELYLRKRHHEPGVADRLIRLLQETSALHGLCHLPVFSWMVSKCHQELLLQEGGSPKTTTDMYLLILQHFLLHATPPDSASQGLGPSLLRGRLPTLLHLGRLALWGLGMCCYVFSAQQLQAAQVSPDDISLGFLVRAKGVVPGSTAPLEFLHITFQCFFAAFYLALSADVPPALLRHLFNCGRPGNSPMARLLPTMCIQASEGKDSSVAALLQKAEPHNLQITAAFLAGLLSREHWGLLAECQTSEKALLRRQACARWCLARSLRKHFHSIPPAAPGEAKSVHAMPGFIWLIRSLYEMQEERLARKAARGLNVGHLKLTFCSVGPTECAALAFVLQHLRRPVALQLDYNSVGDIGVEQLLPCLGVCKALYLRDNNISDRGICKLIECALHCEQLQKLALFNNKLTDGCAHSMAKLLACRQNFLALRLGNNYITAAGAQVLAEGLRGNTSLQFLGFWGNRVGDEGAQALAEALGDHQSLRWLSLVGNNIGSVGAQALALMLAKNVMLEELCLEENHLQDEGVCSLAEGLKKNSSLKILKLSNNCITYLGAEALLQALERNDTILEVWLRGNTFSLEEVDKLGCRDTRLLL
Chain of NADPH oxidase 1 (Q9Y5S8 whole entry): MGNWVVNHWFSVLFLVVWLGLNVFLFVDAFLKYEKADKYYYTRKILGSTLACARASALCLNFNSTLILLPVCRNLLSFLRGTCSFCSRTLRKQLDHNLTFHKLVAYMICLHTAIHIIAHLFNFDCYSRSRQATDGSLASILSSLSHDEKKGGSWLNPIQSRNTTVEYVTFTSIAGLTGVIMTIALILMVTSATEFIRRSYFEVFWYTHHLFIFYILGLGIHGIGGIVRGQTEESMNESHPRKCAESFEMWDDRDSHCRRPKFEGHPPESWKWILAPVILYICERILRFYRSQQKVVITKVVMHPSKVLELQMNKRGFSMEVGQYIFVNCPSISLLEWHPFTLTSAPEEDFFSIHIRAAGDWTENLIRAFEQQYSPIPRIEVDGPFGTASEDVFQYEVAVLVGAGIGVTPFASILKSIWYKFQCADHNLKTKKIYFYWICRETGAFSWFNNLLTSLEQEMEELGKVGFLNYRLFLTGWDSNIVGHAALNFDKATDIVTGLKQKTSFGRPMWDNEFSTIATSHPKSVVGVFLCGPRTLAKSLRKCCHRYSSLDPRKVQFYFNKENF

O=c1oc(-c2cccs2)nc2c1cnn2-c1ccccc1
IC50 [1]: > 100 µM (active)
IC50 [2]: 4.92 µM (active)

CCCc1cc(-n2ccnc2)n2c(nc3ccccc32)c1C#N
IC50 [3]: 29.8 µM (active)

Oc1c(CN2CCN(c3ccccn3)CC2)cc(Cl)c2cccnc12
IC50 [4]: > 20 µM (inactive)
EC50 [5]: 8.07 µM (active)
EC50 [6]: 3.06 µM (active)
IC50 [7]: > 20 µM (inactive)
EC50 [8]: 0.942 µM (active)
EC50 [9]: 7.32 µM (active)
EC50 [10]: > 12 µM (not active)
EC50 [11]: 10.7 µM (active)
EC50 [12]: > 12 µM (inconclusive)
IC50 [13]: 6.23 µM (active)
EC50 [14]: 2.52 µM (active)
IC50 [15]: > 50 µM (not active)
AC50 [16]: 1.99 µM (active)
IC50 [17]: > 50 µM (not active)
IC50 [18]: 4.88 µM (inactive)
EC50 [19]: 5.45 µM (active)
EC50 [20]: 4.58 µM (active)
EC50 [21]: < 0.1 µM (active)

COc1cccc(/C=N/NC(=O)c2cc3c(OC)c(OC)ccc3[nH]2)c1OC
EC50 [22]: > 49.7 µM (not active)
EC50 [23]: > 49.7 µM (not active)

Cc1ccc(-c2nc(-c3ccccc3)c(-c3ccccc3)[nH]2)cc1
IC50 [24]: > 17 µM (not active)

O=[N+]([O-])c1cccc2c(Br)n[nH]c12
AC50 [25]: 0.251 µM (inconclusive)
AC50 [26]: 0.251 µM (inconclusive)
AC50 [27]: 0.001 µM (inconclusive)

Reference: ChEMBL document CHEMBL1201862, “PubChem BioAssay data set” (2004)
